Where “and” joins values, the source holds several entries; their conditions need not be identical. Equal entries are not always repeated.
Experiments:
Format in all cases: cell-based
[1] = system: mixed biofilms of Staphylococcus aureus and Pseudomonas aeruginosa; assay: Assessment of biofilm stains using the constant-depth biofilm fermenter (CDFF); conditions: 100 μM stain, two minutes, 4-day mixed biofilms, n=6
Source text: A constant depth biofilm fermenter (CDFF) was used to culture 4-day mixed biofilms of Staphylococcus aureus and Pseudomonas aeruginosa. Briefly, biofilms were formed in recesses in 15 PTFE pans around the rim of a rotating steel turntable onto which inoculum or sterile growth media was allowed to steadily drip. A scraper bar distributed bacterial inoculum or media over the pans as the turntable rotated, maintaining the biofilms at a steady depth. Each pan contained 5 removable plugs, 4 mm in diameter which were recessed to a depth of 300 μm. The resulting biofilms that grew in the plug recesses were reproducible in terms of appearance and microbiological composition and could be removed from the CDFF through a sampling port using sterile instruments. […] Absorption spectra of the aspired supernatants were then measured in a spectrophotometer and these spectra compared to spectra of known concentrations (100 μM) of each stain in 2% SDS.

S. aureus biofilms = assay: Rose Bengal staining of biofilms, membrane filter biofilm model (S. aureus); conditions: 30 seconds
Description: (§1) A membrane filter biofilm model was used to study the effect of Rose Bengal concentration on the efficacy of biofilm staining. Briefly, a 5 μl volume of a 5×10^5 cfu/ml suspension of S. aureus or P. aeruginosa was added to the centre of sterile membrane filter discs (pore size 0.2 μm; Anodise, Whatman) which were placed onto 7 ml volumes of sterile Tryptic Soya Broth in lidded 6-well plates. Samples were incubated for 4 hours (immature biofilms), and 24 and 48 hours (mature biofilms), and excess planktonic cells were rinsed from the filters. The biofilms on the filters were stained by pipetting 2 ml volumes of Rose Bengal (60 μM or 300 μM) or saline (negative control) for 30 seconds, followed by rinsing. Rose Bengal was recovered from the biofilm samples by stomaching and overnight digestion in 2% sodium dodecyl sulphate, centrifugation, then measuring of absorption spectra in a UV-vis spectrophotometer. Rose Bengal uptake per sample was determined by comparison of absorption values with a standard curve of Rose Bengal in 2% SDS. […] Only at the highest concentrations of 300 μM did the immature, 4-hour biofilms appear to be stained, although this was likely due to some staining of the filters themselves. […] This simple method for quantifying the uptake of Rose Bengal by biofilms utilises the absorption spectra of the dye. Using the absorption spectra to quantify the dye is similar to detecting the fluorescence using a light source with optical filters. Uptake could then alternatively be observed qualitatively using the naked eye or by observing the fluorescence emission of the Rose Bengal in conjunction with a light source and optical filter.

P. aeruginosa biofilms = assay: Rose Bengal staining of biofilms, membrane filter biofilm model (P. aeruginosa); conditions: 30 seconds
Description: as §1

[2] = system: mixed biofilms of Staphylococcus aureus and Pseudomonas aeruginosa; assay: Assessment of biofilm stains using the CDC biofilm reactor; conditions: 100 μM stain, two minutes, 48 hour mixed biofilms, n=9
Description: A Centre for Disease Control (CDC) biofilm reactor was used to culture 48 hour mixed biofilms of Staphylococcus aureus and Pseudomonas aeruginosa. Briefly, biofilms were formed on coupons on reactor rods which were held within the reactor vessel containing a continuously mixed culture of S. aureus and P. aeruginosa at 35° C. Biofilm-containing coupons were removed from the rods, rinsed once by dipping in sterile saline for 5 seconds, then incubated in 10 ml volumes of the following biofilm stains at 100 μM concentration in deionised water, in the dark for two minutes: Erythrosine; Rose Bengal; Alcian Blue; Rhodamine B; Rhodamine 123; Rose Bengal with 2% w/v EDTA and 1% w/v BaCl (RBEB). Following another rinse in saline, nine coupons for each stain were each added to 2 ml volumes of 2% SDS for stomaching at ‘high’ setting for 1 minute then incubated overnight in the dark at 37° C., for digestion. Samples were then spun at 13,000 rpm for 5 minutes to separate the supernatant from digested cell debris. Absorption spectra of the aspired supernatants were then measured in a spectrophotometer and these spectra compared to spectra of known concentrations (100 μM) of each stain in 2% SDS.

[3] = S. aureus biofilm age 4 h, [RB] 60 μM
[4] = P. aeruginosa biofilm age 4 h, [RB] 60 μM

CCN(Cc1cccc(S(=O)(=O)[O-])c1)c1ccc(C(=C2C=CC(=[N+](CC)Cc3cccc(S(=O)(=O)[O-])c3)C=C2)c2ccc(O)cc2S(=O)(=O)[O-])cc1.[Na+].[Na+] [Fast Green]
effectiveness as stain of biofilms grown in the CDFF (FIG. 1) [1]: most effective stain

O=C([O-])c1c(Cl)c(Cl)c(Cl)c(Cl)c1-c1c2cc(I)c(=O)c(I)c-2oc2c(I)c([O-])c(I)cc12.[Na+].[Na+] [Rose Bengal]
Rose Bengal uptake per sample, Avg (S. aureus biofilms; [3]): 0 | Rose Bengal uptake per sample, single replicates 1-3 (S. aureus biofilms; [3]): 0 | Rose Bengal uptake per sample, Avg (S. aureus biofilms; S. aureus biofilm age 4 h, [RB] 300 μM, likely some staining of the filters themselves): 1.56 | Rose Bengal uptake per sample, single replicates 1-3 (S. aureus biofilms; S. aureus biofilm age 4 h, [RB] 300 μM, likely some staining of the filters themselves, listed as RB): 1.59 and 1.45 and 1.64 | Rose Bengal uptake per sample, Avg (S. aureus biofilms; S. aureus biofilm age 24 h, [RB] 60 μM): 1.85 | Rose Bengal uptake per sample, single replicates 1-3 (S. aureus biofilms; S. aureus biofilm age 24 h, [RB] 60 μM, listed as RB): 1.66 and 1.72 and 2.17 | Rose Bengal uptake per sample, Avg (S. aureus biofilms; S. aureus biofilm age 24 h, [RB] 300 μM): 4.44 | Rose Bengal uptake per sample, single replicates 1-3 (S. aureus biofilms; S. aureus biofilm age 24 h, [RB] 300 μM, listed as RB): 4.82 and 4.55 and 3.95 | Rose Bengal uptake per sample, Avg (S. aureus biofilms; S. aureus biofilm age 48 h, [RB] 60 μM): 1.24 | Rose Bengal uptake per sample, single replicates 1-3 (S. aureus biofilms; S. aureus biofilm age 48 h, [RB] 60 μM, listed as RB): 1.22 and 1.12 and 1.37 | Rose Bengal uptake per sample, Avg (S. aureus biofilms; S. aureus biofilm age 48 h, [RB] 300 μM): 5.72 | Rose Bengal uptake per sample, single replicates 1-3 (S. aureus biofilms; S. aureus biofilm age 48 h, [RB] 300 μM, listed as RB): 6.26 and 5.18 and 5.71 | Rose Bengal uptake by mature biofilms (in words) (S. aureus biofilms; S. aureus, 24 and 48 hours biofilms, 60 μM or 300 μM): dye concentration- and biofilm age-dependent manner | Rose Bengal uptake per sample, Avg (P. aeruginosa biofilms; [4]): 0 | Rose Bengal uptake per sample, single replicates 1-3 (P. aeruginosa biofilms; [4]): 0 | Rose Bengal uptake per sample, Avg (P. aeruginosa biofilms; P. aeruginosa biofilm age 4 h, [RB] 300 μM, likely some staining of the filters themselves): 1.72 | Rose Bengal uptake per sample, single replicates 1-3 (P. aeruginosa biofilms; P. aeruginosa biofilm age 4 h, [RB] 300 μM, likely some staining of the filters themselves, listed as RB): 1.52 and 1.76 and 1.88 | Rose Bengal uptake per sample, Avg (P. aeruginosa biofilms; P. aeruginosa biofilm age 24 h, [RB] 60 μM): 1.94 | Rose Bengal uptake per sample, single replicates 1-3 (P. aeruginosa biofilms; P. aeruginosa biofilm age 24 h, [RB] 60 μM, listed as RB): 2.04 and 1.76 and 2.02 | Rose Bengal uptake per sample, Avg (P. aeruginosa biofilms; P. aeruginosa biofilm age 24 h, [RB] 300 μM): 5.10 | Rose Bengal uptake per sample, single replicates 1-3 (P. aeruginosa biofilms; P. aeruginosa biofilm age 24 h, [RB] 300 μM, listed as RB): 5.05 and 5.84 and 4.41 | Rose Bengal uptake per sample, Avg (P. aeruginosa biofilms; P. aeruginosa biofilm age 48 h, [RB] 60 μM): 2.39 | Rose Bengal uptake per sample, single replicates 1-3 (P. aeruginosa biofilms; P. aeruginosa biofilm age 48 h, [RB] 60 μM, listed as RB): 3.15 and 1.66 and 2.37 | Rose Bengal uptake per sample, Avg (P. aeruginosa biofilms; P. aeruginosa biofilm age 48 h, [RB] 300 μM): 7.30 | Rose Bengal uptake per sample, single replicates 1-3 (P. aeruginosa biofilms; P. aeruginosa biofilm age 48 h, [RB] 300 μM, listed as RB): 6.20 and 9.01 and 6.69 | Rose Bengal uptake by mature biofilms (in words) (P. aeruginosa biofilms; P. aeruginosa, 24 and 48 hours biofilms, 60 μM or 300 μM): dye concentration- and biofilm age-dependent manner

Alcian Blue
biofilm staining expressed as ratio of measured absorption: absorption at 100 1.1M (i.e. concentration) (FIG. 2b) [2]: most effective biofilm stain

— US20210369874A1, “COMPOSITION FOR DETECTING BIOFILMS ON VIABLE TISSUES” (CONVATEC TECHNOLOGIES INC., priority 2010, published 2021)
